Experimental findings from patent US5700640A, “Inducers of gamma globin gene expression and screening assays therefor” (priority 1994, dated 1997) are described below.

Where only a bound is given, the exact number is not on record here.

In data set [1] the test system is gamma globin gene expression (gamma3'PE reporter) in K562 cells. As to the kind of experiment: gamma globin promoter-luciferase reporter assay in stably transfected gamma3'PE K562 cells. To be noted: for reporter gene activity relative to VA or IVA (FIG. 5): 24 hours, fold-induction relative to isovaleric acid; for fold induction at 5000 µM: Homo sapiens, K562, 72 h, read-out: fold induction of reporter gene activity (FIG. 6); for induction of gamma-globin reporter gene expression over time course (FIG. 3): 24-122 hr, normalized to viable cells. How it is done:
The gamma globin 5' promoter and 3' enhancer fragments, alone or in combination with each other or another fragment, were inserted into restriction endonuclease sites flanking the coding sequences of the luciferase gene in pGL2 using standard recombinant DNA techniques (pGL2 was obtained commercially from Promega Biotech). Constructs were prepared which contained: 1) the gamma globin promoter alone upstream of the luciferase gene (gamma); 2) the gamma globin promoter upstream of the luciferase gene and the gamma globin 3' enhancer downstream of the luciferase gene (gamma3'PE); 3) the gamma globin promoter upstream of the luciferase gene and the SV40 enhancer downstream of the luciferase gene (gammaSV40); 4) the beta globin promoter upstream of the luciferase gene and the gamma globin 3' enhancer downstream of the luciferase gene Coeta3'PE); and 5) hypersensitive sites 2 and 3 G-IS2 and HS3) of the 5' globin enhancer upstream of the gamma globin promoter upstream of the luciferase gene and the gamma globin 3' enhancer downstream of the luciferase gene (HS2/3gamma3'PE). These constructs are illustrated schematically in FIG. 2.
The gamma globin-luciferase reporter gene constructs described in Example 1 were introduced into a human erythroleukemia cell line K562 (ATCC No. CCL 243). To create stable transfectants, K562 cells (5×10^6) in log phase were suspended in 400 μl HEPES buffered saline and then combined with 33.5 μg salmon testes DNA (Sigma), 1.5 μg neo plasmid (pPMT) and 15 μg reporter gene plasmid supercoiled that had been co-precipitated and suspended in 400 μl HEPES buffered saline. The DNA-cell mixture was electroporated at settings of 0.25 KV and 960 μFD using a Gene Pulser (BioRad Inc.) electropotation apparatus.
The cells were allowed to recover 10 minutes at room temperature, then added to 10 ml complete RPMI cell culture medium. Cell debris was removed by centrifugation at 1000 rpm for 5 minutes. The live cells were suspended in 20 ml RPMI in 2×10 cm dishes and grown in non-selective media for 48 hours. Stably transfected cells were then selected by growing the cells in media containing 300 μg/ml G418 for about one month. During this time the cells were split 1:5 every 3 to 4 days. Once the lines were stable, they were carried in 100 μg/ml G418. The cell lines were designated according to the reporter gene construct that was introduced into the cell line. For example, a cell line carrying the gamma'3PE construct was designated gamma3'PE. Transient transfections were carried out similarly except that the neo plasmid was omitted from the electroporation solution and the cells were not subjected to G418 selection.
K562 host cells carrying gamma globin-reporter gene constructs were used to lo screen compounds for their ability to induce globin gene expression, as measured by increased reporter gene activity in the host cells upon treatment with the compound. The host cells described in Example 2 were grown to log phase cells and plated at a density of 2×10^5 /ml in RPMI media without G418. After 24 hours, compounds to be assayed for their ability to induce globin gene expression were dissolved in RPMI media at a concentration of 5 mM and added to the K562 stable transfectants. Mock-treated stably transfected K562 cells served as a negative control. The cells were incubated with the test compounds at 37° C. for various time periods (e.g., 24, 50, 74 and 122 hours).
After induction with the test compounds, the cells were harvested, lysed and assayed for reporter gene activity (i.e., luciferase activity) as follows. Cells were collected, washed once with PBS and lysed in 200 μl Cell Culture Lysis 1 X Reagent (Promega Luciferase Assay System) consisting of 25 mM Tris-Phosphate pH 7.8; 2 mM DTT; 2 mM 1,2-diaminocyclohexane-N,N,N,N-tetraacetic acid; 10% glycerol; 1% Triton X-100.

Data set [2] deals with K562 cells. Nature of the data set: in vitro. As for the experimental part: (§1) To normalize luciferase units to the number of viable cells, parallel cell viability assays were performed using 3-(4,5-dimethylthiazol-2-yl)-2,5-diphenyltetrazolium bromide (MTT) (Vistica, D. T. et al. (1991) Cancer Res. 51:2515-2520). Transfected K562 cells were plated in 96 well dishes at a density of 2×10^4 and 2×10^3 cells per 100 μl per well. 24 hours later, the cells were treated with test compounds (at a final concentration of 5 mM). At 24, 50, 74 or 122 hours after treatment, 50 μl of 3 mg/ml MTT in PBS was added to each well. The 96 well plate was then incubated at 37° C. for 4 to 5 hours. The formazan derivatives formed from tetrazolium by viable cells were solubilized by the addition of 50 μl/well 25% SDS, pH 3, overnight at 37° C. The plates were than read at a wavelength of 550 nm.

The nature of data set [3]: in vitro. To be noted: human, k562 cells. As for the experimental part: as §1
In data set [4] the test system is gamma globin reporter gene activity in gamma3'PE K562 cells (protein kinase C activation). As to the kind of experiment: effect of indolactam V stereoisomers on basal and BA-induced reporter gene activity. It counts as cell-based, human. The following applies: for effect on BA-induced globin gene expression (fold increment vs untreated cells) / effect on basal level globin gene expression: 11 μM or 0.4 μM; for effect on BA-induced globin gene expression (fold increment vs untreated cells): 1 hour before 5 mM BA for 24 hours; for effect on basal level globin gene expression: no BA. As for the experimental part: The role of activated protein kinase C (pKC) in the activation of gamma globin gene expression by BA was investigated. […] The chemical structures of these compounds are shown in FIG. 13, panel A and B, respectively. Gamma3'PE cells were pre-incubated with either inducer (at 11 μM or 0.4 μM) or left untreated for 1 hour prior to treatment with 5 mMBA for 24 hours, followed by harvesting of the cells and assaying of luciferase activity. The results are shown in FIG. 14, Panel A (11 μM inducer) and FIG. 14, Panel B (0.4 μM inducer). […] Thus, it appears that these compounds act synergistically through pathways converging at some point downstream of the initial site of action of either inducer.

In data set [5] the test system is GATA-1 mRNA. Nature of the data set: Northern hybridization of GATA-1 mRNA in treated K562 cells. It counts as cell-based, human. To be noted: for induction of mRNA encoding GATA-1: normalized data; for Normalized Value, GATA-1 RNA: normalized to 28S ribosomal RNA. As for the experimental part: (§2) Total RNA was prepared by the method of McDonald as described in Sambrook et al., (1989) Molecular Cloning: A Laboratory Manual, 2nd Edition, Cold Spring Harbor Laboratory Press. 10 μg total cellular RNA was electrophoresed through agarose gels containing 3.3% formaldehyde. The electrophoresed RNA was then transferred to nitrocellulose filters by standard methods. Each sample was hybridized to specific probes for gamma globin mRNA, mRNA encoding the erythroid specific transcription factor GATA-1 and 28S ribosomal RNA (which was used for standardization). The gamma globin and GATA-1 probes were cDNA probes, which were labeled with ^32 p by random priming reactions (Promega Biotech Inc.). The 28S ribosomal RNA probe was an oligonucleotide having the sequence 5' […] 3' (SEQ ID NO: 3), which was labeled by 5' end labeling using T4 polynucleotide kinase (New England Biolabs). Nucleotide probes were hybridized to the RNA nitrocellulose filters according to standard techniques. After hybridization, radioactive signals on the nitrocellulose filters were directly quantified using a BioRad GS-250 Molecular Imager. mRNA hybridization intensities were normalized to the amount of 28S ribosomal RNA present for each sample.

Data set [6] relates to gamma globin mRNA. Nature of the data set: Northern hybridization of gamma globin mRNA in treated K562 cells. It counts as cell-based, human. To be noted: for Raw Value, gamma globin RNA / Normalized Value, gamma globin RNA: K562 cells, 5 mM, 96 hours; for Normalized Value, gamma globin RNA: normalized to 28S ribosomal RNA; for gamma globin mRNA steady state level: vs untreated cells or cells treated with BA. How it is done: as §2

For data set [7], the system named is BA-mediated induction of luciferase activity in gamma3'PE K562 cells. As to the kind of experiment: effect of transport inhibitors on BA-induced reporter gene activity in gamma3'PE K562 cells. It counts as cell-based, human. The following applies: acetazolamide 1 mM, SITS 10 μM, amiloride 10 μM; 24 hours with BA. How it is done:
To characterize uptake of butyric acid by erythroid cells, K562 cells stably transfected with gamma3'PE were treated with BA in the presence of various transport inhibitors. […] Cells were maintained in the continuous presence of both BA and the inhibitor for 24 hours and then luciferase activity in the cells was measured.

The mark [8] stands for this setting: compared with induction mediated by BA.

On to `O=C(O)CCc1ccccc1` [3-phenyl propionic acid], for which, in data set [1] (5 mM), the “reporter gene activity relative to VA or IVA (FIG. 5)” value is reported as “detectable reporter gene activity, although to a lesser extent than VA or IVA”.

`O=C(O)CCCc1ccccc1` [4-phenyl butyric acid]: the “reporter gene activity relative to VA or IVA (FIG. 5)” value in data set [1] (5 mM) was “detectable reporter gene activity to a slightly greater extent than VA or IVA”.

`C#CCCC(=O)O` [4PyA, 4-pentynoic acid]: the fold induction at 5000 µM in data set [1] is approximately 4. The “cell death accompanying gamma globin gene induction” value in data set [2] is listed as “significantly less cell death than induction mediated by BA”. Moreover, the viability at 72 h, 5000 µM in data set [3] was more than 50%.

For `O=C(O)CCCCc1ccccc1` [5-phenyl valeric acid], the “reporter gene activity relative to VA or IVA (FIG. 5)” value in data set [1] (5 mM) is reported as “detectable reporter gene activity, although to a lesser extent than VA or IVA”.

Consider `CC(C)[C@@H]1C(=O)N[C@@H](CO)Cc2c[nH]c3cccc(c23)N1C` [(+) indolactam V], for which, in data set [4], the “effect on BA-induced globin gene expression (fold increment vs untreated cells)” value is “same fold increment” and the “effect on basal level globin gene expression” value is reported as “unaffected”.

Regarding `CC(C)[C@H]1C(=O)N[C@H](CO)Cc2c[nH]c3cccc(c23)N1C` [(-) indolactam V], in data set [4], the “effect on BA-induced globin gene expression (fold increment vs untreated cells)” value was “same fold increment” and the “effect on basal level globin gene expression” value was “significant stimulatory effect on basal level globin gene expression”. Moreover, in data set [4] (combined (-) indolactam V and 5 mM BA), the “net increase in gene expression of combined treatment with BA” value is given as “well above the arithmetic sum of the level of induction achieved by either of these compounds separately”.

`CC(C)CC(=O)O` [IVA, isovaleric acid]: the “induction of mRNA encoding GATA-1” value in data set [5] is listed as “significant induction of mRNA encoding GATA-1”. Further, the “Normalized Value, GATA-1 RNA” value in data set [5] (K562 cells, 5 mM, 96 hours) is recorded as 1.3 × 10^6. Further, in data set [1] (5 mM), the “induction of gamma-globin reporter gene expression over time course (FIG. 3)” value is “lower but sustained induction of reporter gene expression”. Besides, the “cell death accompanying gamma globin gene induction” value in data set [2] (setting [8]) is “significantly less cell death than induction mediated by BA”. In data set [6], the “Raw Value, gamma globin RNA” value was 5.94 × 10^6; the “Normalized Value, gamma globin RNA” value is reported as 5.3 × 10^6; the “gamma globin mRNA steady state level” value is “higher steady state level of gamma globin mRNA than untreated cells or cells treated with BA”.

As for `COCC(=O)O` [MoAA, methoxyacetic acid], in data set [1], the fold induction at 5000 µM is approximately 4. Moreover, the “cell death accompanying gamma globin gene induction” value in data set [2] (setting [8]) is reported as “significantly less cell death than induction mediated by BA”. In data set [3], this compound registered a viability at 72 h, 5000 µM of more than 50%.

For `CSCC(=O)O` [MtAA, methylthioacetic acid], the fold induction at 5000 µM in data set [1] is approximately 5. Further, the “cell death accompanying gamma globin gene induction” value in data set [2] is on record as “significantly less cell death than induction mediated by BA”. In addition, the viability at 72 h, 5000 µM in data set [3] was more than 50%.

`CC(=O)Nc1ccc(C=Cc2ccc(N=C=S)cc2S(=O)(=O)O)c(S(=O)(=O)O)c1` [SITS]: the “effect on BA-mediated induction of luciferase activity” value (“effect on BA-mediated induction” for short) in data set [7] was “did not affect BA-mediated induction of luciferase activity”.

As for `CCCCC(=O)O` [VA, valeric acid], the fold induction at 5000 µM in data set [5] (Homo sapiens, K562, 96 h, read-out: Fold Induction, GATA-1 RNA) came to 6. Also, in data set [5] (K562 cells, 5 mM, 96 hours), the “Raw Value, GATA-1 RNA” value is reported as 3.96 × 10^5 and the “Normalized Value, GATA-1 RNA” value is 3.5 × 10^5. For the same compound, in data set [5], the “induction of mRNA encoding GATA-1” value is listed as “significant induction of mRNA encoding GATA-1”. The “induction of gamma-globin reporter gene expression over time course (FIG. 3)” value in data set [1] (5 mM) was “lower but sustained induction of reporter gene expression”. The “induction relative to BA at 74 hr (FIG. 4)” value in data set [1] (5 mM, normalized to fold induction by BA, 74 hr) was “marginally better inducers than BA at 74 hr”. Moreover, the “induction relative to BA at 122 hr (FIG. 4)” value in data set [1] (5 mM, normalized to fold induction by BA, 122 hr) is “significantly better inducers than BA at 122 hr post induction”. Further, in data set [2], the “cell death accompanying gamma globin gene induction” value is listed as “significantly less cell death than induction mediated by BA” and the “cell viability relative to untreated cells (FIG. 7)” value was “equivalent to that of untreated cells”. Further, the fold induction at 5000 µM in data set [6] (Homo sapiens, K562, 96 h, read-out: Fold Induction, gamma globin RNA) amounted to 4.4. Also, in data set [6], the “Raw Value, gamma globin RNA” value is recorded as 3.35 × 10^6; the “Normalized Value, gamma globin RNA” value is 3.3 × 10^6; the “gamma globin mRNA steady state level” value is given as “higher steady state level of gamma globin mRNA than untreated cells or cells treated with BA”.

Turning to `CC(=O)Nc1nnc(S(N)(=O)=O)s1` [acetazolamide], in data set [7], the “effect on BA-mediated induction” value is “did not affect BA-mediated induction of luciferase activity”.

`N=C(N)NC(=O)c1nc(Cl)c(N)nc1N` [amiloride]: in data set [7], the “effect on BA-mediated induction” value was “did not affect BA-mediated induction of luciferase activity”.

On to `CCC(=O)O` [propionic acid], for which the “reporter gene activity relative to VA or IVA (FIG. 5)” value in data set [1] (5 mM) was “detectable reporter gene activity, although to a lesser extent than VA or IVA”.

For the compound `CCCCC(=O)OC(=O)CCCC` [valeric acid anhydride], the “reporter gene activity relative to VA or IVA (FIG. 5)” value in data set [1] (5 mM) is listed as “detectable reporter gene activity, although to a lesser extent than VA or IVA”.
